# Assay results: ChEMBL document CHEMBL1155134, “Structural basis for the potent calpain inhibitory activity of peptidyl alpha-ketoacids” (J Med Chem, 2008)
# Residues, ends and D or L forms follow the SMILES beside them. *: point of attachment. Cbz = O=C(OCc1ccccc1)*
# Target: T1, Calpain-1 catalytic subunit (Sus scrofa, UniProt P35750)
# T1 sequence (P35750 whole entry): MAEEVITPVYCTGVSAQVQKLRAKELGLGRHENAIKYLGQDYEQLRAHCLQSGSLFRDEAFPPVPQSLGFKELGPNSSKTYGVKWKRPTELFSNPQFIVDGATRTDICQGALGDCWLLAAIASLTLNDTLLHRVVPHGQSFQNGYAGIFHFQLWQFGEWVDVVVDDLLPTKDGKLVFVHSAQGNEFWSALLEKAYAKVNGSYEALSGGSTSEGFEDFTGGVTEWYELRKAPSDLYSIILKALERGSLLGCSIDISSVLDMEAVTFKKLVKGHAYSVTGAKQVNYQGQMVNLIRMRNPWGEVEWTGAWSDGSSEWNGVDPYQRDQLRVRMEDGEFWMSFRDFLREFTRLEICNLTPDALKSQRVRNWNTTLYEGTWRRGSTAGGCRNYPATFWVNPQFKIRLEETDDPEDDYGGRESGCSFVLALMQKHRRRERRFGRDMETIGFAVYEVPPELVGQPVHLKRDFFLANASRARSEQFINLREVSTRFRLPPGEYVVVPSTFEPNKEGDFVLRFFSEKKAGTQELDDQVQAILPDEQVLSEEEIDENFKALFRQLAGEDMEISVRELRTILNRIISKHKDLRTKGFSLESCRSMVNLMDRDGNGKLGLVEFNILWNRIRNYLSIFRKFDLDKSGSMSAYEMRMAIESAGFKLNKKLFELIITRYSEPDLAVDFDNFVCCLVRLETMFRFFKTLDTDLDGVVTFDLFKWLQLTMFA
# Experiment: Inhibition of pig erythrocyte mu-calpain by fluorometric assay
row,Ki,Structure (SMILES)
1,63 nM,CC(C)C[C@H](NC(=O)CC(c1ccccc1)c1ccccc1)C(=O)NC(Cc1ccccc1)C(=O)C(=O)O (mixture of isomers)
2,108 nM,CC(C)C[C@H](NC(=O)C(c1ccccc1)c1ccccc1)C(=O)NC(Cc1ccccc1)C(=O)C(=O)O (mixture of isomers)
3,8 nM,CC(C)C[C@H](NC(=O)CC1c2ccccc2-c2ccccc21)C(=O)NC(Cc1ccccc1)C(=O)C(=O)O (mixture of isomers)
4,1050 nM,COC(=O)C(=O)C(Cc1ccccc1)NC(=O)[C@H](CC(C)C)NC(=O)CCC1CCCCC1 (mixture of isomers)
5,41 nM,CC(C)C[C@H](NC(=O)CC12CC3CC(CC(C3)C1)C2)C(=O)NC(Cc1ccccc1)C(=O)C(=O)O (mixture of isomers)
6,50 nM,CC(C)C[C@H](NC(=O)CCC1CCCCC1)C(=O)NC(Cc1ccccc1)C(=O)C(=O)O (mixture of isomers)
7,1200 nM,COC(=O)C(=O)C(Cc1ccccc1)NC(=O)[C@H](CC(C)C)NC(=O)CC1c2ccccc2-c2ccccc21 (mixture of isomers)
8,944 nM,COC(=O)C(=O)C(Cc1ccccc1)NC(=O)[C@H](CC(C)C)NC(=O)C(c1ccccc1)c1ccccc1 (mixture of isomers)
9,450 nM,COC(=O)C(=O)C(Cc1ccccc1)NC(=O)[C@H](CC(C)C)NC(=O)CC12CC3CC(CC(C3)C1)C2 (mixture of isomers)

row,Structure (SMILES),Ki
1,CC(C)[C@H](NC(=O)OCc1ccccc1)C(=O)N[C@H](C=O)Cc1ccccc1 (Cbz-Val-Phe-aldehyde),10 nM
